Data on 10 compounds can be found in article PMC9311539, “Antibacterial Activity against Clinical Isolates and In Vivo Efficacy of Coralmycins” (Antibiotics, 2022).

Values after ≈ are worked out from the molar mass of the structure shown. Like-named read-outs stand apart in the source and are kept apart here. Some results are limits rather than exact numbers.

For one series, the system named is MSSA. As to the kind of experiment: MIC, broth microdilution, clinical isolates: MSSA. The format is cell-based. The conditions noted are these: Staphylococcus aureus; for MIC90: read-out: MIC90. Here is the method: (§1) To assess the MICs for antibiotic susceptibility, Gram-positive bacteria isolated from human clinical specimens were obtained from several general hospitals in Seoul, Korea, during 2002–2018. Staphylococcus aureus Giorgio and Streptococcus pneumoniae ATCC49619 were used to test in vivo efficacies against […], in mice.
(§2) The MICs of the antimicrobial agents were determined by a twofold microdilution broth method, as described by the Clinical and Laboratory Standards Institute. Briefly, test organisms were grown on Mueller–Hinton agar (MHA, BD Difco, Sparks, MD, USA) plates, subcultured into cation-adjusted Mueller–Hinton broth (CAMHB, BD Difco, Sparks, MD, USA), and incubated for 18 h at 35 °C. For S. pneumoniae culture, 5% sheep blood (Hanil Comed, Seongnam, Korea) was added. The cultured bacteria were diluted using phosphate-buffered saline (PBS) to achieve a bacterial cell density of approximately 5 × 10^6 CFU/mL. All test organisms were loaded into 96-well plates containing serial dilutions of the antimicrobial agents to achieve a concentration of 5 × 10^4 CFU/well. The plates were incubated at 35 °C for 18–20 h and examined for bacterial growth.

The subject of series [1] is Vancomycin-sensitive E. faecalis. As to the kind of experiment: MIC, broth microdilution, clinical isolates: vancomycin-sensitive E. faecalis. The series is classed as cell-based, Enterococcus faecalis. The conditions noted are these: Enterococcus faecalis, 32 clinical isolates; for MIC50: read-out: MIC50; for MIC90: read-out: MIC90. Here is the method:
as §1, §2
In general terms: Broth dilution looks for growth in wells or tubes with falling amounts of substance.

The test system of series [2] is Vancomycin-sensitive E. faecium. As to the kind of experiment: MIC, broth microdilution, clinical isolates: vancomycin-sensitive E. faecium. Particulars: Enterococcus faecium, 32 clinical isolates; for MIC50: read-out: MIC50; for MIC90: read-out: MIC90. The format is cell-based, Enterococcus faecium. Here is the method:
as §1, §2

The test system of another series is VRE. As to the kind of experiment: MIC, broth microdilution, clinical isolates: VRE. The format is cell-based, vancomycin-resistant Enterococcus. Particulars: for MIC50: read-out: MIC50. Here is the method:
as §1, §2

A further series relates to S. pneumoniae. As to the kind of experiment: MIC, broth microdilution, clinical isolates: S. pneumoniae. The series is classed as cell-based, Streptococcus pneumoniae. Particulars: for MIC50: read-out: MIC50. Here is the method: as §1, §2
The subject of another series is MRSA. As to the kind of experiment: MIC, broth microdilution, clinical isolates: MRSA. The series is classed as cell-based, Staphylococcus aureus. Particulars: Staphylococcus aureus, MRSA, 42 clinical isolates; for MIC50: read-out: MIC50; for MIC90: read-out: MIC90. Here is the method:
as §1, §2

The subject of series [3] is CNS (coagulase-negative staphylococci). As to the kind of experiment: MIC, broth microdilution, clinical isolates: CNS. The conditions noted are these: 31 clinical isolates; for MIC50: read-out: MIC50; for MIC90: read-out: MIC90. The series is classed as cell-based. Here is the method:
as §1, §2

The conditions of series [4]: highly protein-bound antibacterial agents in clinical use; cited from earlier work.
The subject of the next series is S. pneumoniae ATCC49619. As to the kind of experiment: Time-kill assay, S. pneumoniae ATCC49619. Particulars: 2× and 4× MIC, 24 h. The series is classed as cell-based, Streptococcus pneumoniae. Here is the method:
(§3) Time-kill analysis was performed by the NCCLS M26-A method. The test organisms (S. aureus Giorgio, S. pneumoniae ATCC49619, MRSA CCARM 3167, and VRE 3) incubated in CAMHB for 18 h at 35 °C were diluted to 10^5 CFU/mL with fresh CAMHB, and the diluted cultures were preincubated for 2 h. For S. pneumoniae culture, 5% sheep blood (Hanil Comed, Seongnam, Korea) was added. […] Culture aliquots (0.1 mL) were removed after 0, 2, 4, 6 and 24 h of incubation, and serial 10-fold dilutions were prepared in saline as needed. The numbers of viable cells were determined on drug-free MHA plates after 20 h of incubation. A compound was considered bactericidal if the original inoculum was reduced by 3 log CFU/mL (99.9%) at each concentration or was considered bacteriostatic if the inoculum was reduced by 0–3 log CFU/mL.

For the next series, the system named is S. aureus Giorgio. As to the kind of experiment: Time-kill assay, S. aureus Giorgio. Particulars: 2× and 4× MIC, 24 h. The format is cell-based, Staphylococcus aureus. Here is the method: as §3
A further series relates to MRSA CCARM 3167. As to the kind of experiment: Time-kill assay, MRSA CCARM 3167. The format is cell-based, Staphylococcus aureus. Particulars: 2× and 4× MIC, 24 h. Here is the method:
as §3

In a further series the test system is VRE 3. As to the kind of experiment: Time-kill assay, VRE 3. Particulars: 2× and 4× MIC, 24 h. The series is classed as cell-based, vancomycin-resistant Enterococcus. Here is the method: as §3
The mark [5] stands for this setting: 26 clinical isolates, read-out: MIC50.
Setting [6] is: Enterococcus, VRE, 46 clinical isolates.
[7] abbreviates: Enterococcus, VRE, 46 clinical isolates, read-out: MIC90.
The mark [8] stands for this setting: Streptococcus pneumoniae, 27 S. pneumoniae isolates, read-out: MIC90.
Setting [9] is: Streptococcus pneumoniae, 27 clinical isolates.

Take `CO[C@@]1(NC(=O)Cc2cccs2)C(=O)N2C(C(=O)O)=C(COC(N)=O)CS[C@@H]21` [Cefoxitin]: the MIC50 in the series with MSSA (setting [5]) is 4 µg/mL (≈ 9.36 µM); in series [1], above 32 µg/mL; in series [2], above 32 µg/mL; in the series with VRE (setting [6]) it was above 32 µg/mL; in the series with S. pneumoniae (setting [9]), above 32 µg/mL. The MIC90 in the series on MSSA (26 clinical isolates) is 4 µg/mL (≈ 9.36 µM); in [1], above 32 µg/mL; in [2] it was above 32 µg/mL; with VRE (setting [7]), above 32 µg/mL; against S. pneumoniae (27 clinical isolates), above 32 µg/mL; in the series on S. pneumoniae (setting [8]), above 32 µg/mL.
For the compound `CC(C)(O/N=C(\C(=O)N[C@@H]1C(=O)N2C(C(=O)[O-])=C(C[n+]3ccccc3)CS[C@H]12)c1csc(N)n1)C(=O)O` [Ceftazidime], the MIC50 in the series with MSSA (setting [5]) was 8 µg/mL (≈ 14.6 µM); in the series with MRSA it was above 32 µg/mL; in series [1], above 32 µg/mL; in series [3] it was 32 µg/mL (≈ 58.5 µM); in series [2], above 32 µg/mL; in the series on VRE (setting [6]), above 32 µg/mL. Also, the MIC50 in the series on S. pneumoniae (setting [9]) was above 32 µg/mL. For the same compound, the MIC90 was 16 µg/mL (≈ 29.3 µM) in the series with MSSA (26 clinical isolates); above 32 µg/mL in the series with MRSA; above 32 µg/mL in [1]; above 32 µg/mL in [3]; above 32 µg/mL in series [2]; above 32 µg/mL in the series on VRE (setting [7]). Further, the MIC90 against S. pneumoniae (27 clinical isolates) and in the series on S. pneumoniae (setting [8]) was above 32 µg/mL in each case.
Turning to `CCCCCCCCCC(=O)N[C@@H](Cc1c[nH]c2ccccc12)C(=O)N[C@H](CC(N)=O)C(=O)N[C@@H](CC(=O)O)C(=O)N[C@@H]1C(=O)NCC(=O)N[C@@H](CCCN)C(=O)N[C@@H](CC(=O)O)C(=O)N[C@H](C)C(=O)N[C@@H](CC(=O)O)C(=O)NCC(=O)N[C@H](CO)C(=O)N[C@@H]([C@H](C)CC(=O)O)C(=O)N[C@@H](CC(=O)c2ccccc2N)C(=O)O[C@@H]1C` [Daptomycin], the MIC50 in the series with MSSA (setting [5]) was 2 µg/mL (≈ 1.23 µM); with MRSA, 2 µg/mL (≈ 1.23 µM); in series [1], 4 µg/mL (≈ 2.47 µM); in series [3], 2 µg/mL (≈ 1.23 µM); in series [2], 4 µg/mL (≈ 2.47 µM); with VRE (setting [6]), 4 µg/mL (≈ 2.47 µM). For the same compound, the MIC50 in the series on S. pneumoniae (setting [9]) worked out at 2 µg/mL (≈ 1.23 µM). For the same compound, the MIC90 with MSSA (26 clinical isolates) is 4 µg/mL (≈ 2.47 µM); with MRSA, 4 µg/mL (≈ 2.47 µM); in [1], 8 µg/mL (≈ 4.94 µM); in series [3], 4 µg/mL (≈ 2.47 µM); in [2] it was 8 µg/mL (≈ 4.94 µM); against VRE (46 clinical isolates), 8 µg/mL (≈ 4.94 µM). Further, the MIC90 amounted to 8 µg/mL (≈ 4.94 µM) in the series with VRE (Enterococcus, 46 VRE isolates, read-out: MIC90); 8 µg/mL (≈ 4.94 µM) in the series with S. pneumoniae (27 clinical isolates); 8 µg/mL (≈ 4.94 µM) with S. pneumoniae (setting [8]).
On to `CNC(C)C1CCC(N)C(OC2C(N)CC(N)C(OC3OCC(C)(O)C(NC)C3O)C2O)O1` (centres unmarked) [Gentamicin], for which the MIC50 in the series with MSSA (setting [5]) is 1 µg/mL (≈ 2.09 µM); with MRSA, 32 µg/mL (≈ 67 µM); in series [1], above 32 µg/mL; in series [3], above 32 µg/mL; in series [2], above 32 µg/mL; with VRE (setting [6]), above 32 µg/mL. The MIC50 in the series on S. pneumoniae (setting [9]) worked out at 32 µg/mL (≈ 67 µM). Further, the MIC90 (in the series with MSSA (26 clinical isolates); with MRSA; in series [1]; in series [3]; in series [2]; with VRE (setting [7])) was above 32 µg/mL in each case. For the same compound, the MIC90 in the series on S. pneumoniae (Streptococcus pneumoniae, 27 clinical isolates, read-out: MIC90) was above 32 µg/mL.
Take `C[C@H]1COc2c(N3CCN(C)CC3)c(F)cc3c(=O)c(C(=O)O)cn1c23` [Levofloxacin]: the MIC50 in the series on MSSA (setting [5]) is 0.25 µg/mL (≈ 0.692 µM); with MRSA it was 16 µg/mL (≈ 44.3 µM); in [1] it was 2 µg/mL (≈ 5.53 µM); in [3], 8 µg/mL (≈ 22.1 µM); in series [2], 16 µg/mL (≈ 44.3 µM); in the series on VRE (setting [6]) it was above 32 µg/mL. Also, in the series on S. pneumoniae (setting [9]), the MIC50 was 0.5 µg/mL (≈ 1.38 µM). Further, the MIC90 in the series on MSSA (26 clinical isolates) is 0.5 µg/mL (≈ 1.38 µM); with MRSA, above 32 µg/mL; in series [1], 32 µg/mL (≈ 88.6 µM); in [3], above 32 µg/mL; in [2] it was 32 µg/mL (≈ 88.6 µM); in the series on VRE (setting [7]), above 32 µg/mL. In addition, the MIC90 with S. pneumoniae (27 clinical isolates) and in the series on S. pneumoniae (setting [8]) was 16 µg/mL (≈ 44.3 µM) each time.
On to `C[C@@H](O)[C@H]1C(=O)N2C(C(=O)O)=C(S[C@@H]3CN[C@H](C(=O)N(C)C)C3)[C@H](C)[C@H]12` [Meropenem], for which the MIC50 with MSSA was 0.125 µg/mL (≈ 0.326 µM); in series [1] it was 4 µg/mL (≈ 10.4 µM); in series [2], above 32 µg/mL; in the series on VRE (setting [6]), above 32 µg/mL; in the series with S. pneumoniae (setting [9]), 0.5 µg/mL (≈ 1.3 µM). For the same compound, the MIC90 is 0.25 µg/mL (≈ 0.652 µM) in the series on MSSA (26 clinical isolates); 16 µg/mL (≈ 41.7 µM) in series [1]; above 32 µg/mL in series [2]; above 32 µg/mL with VRE (setting [7]); 4 µg/mL (≈ 10.4 µM) in the series with S. pneumoniae (27 clinical isolates); 4 µg/mL (≈ 10.4 µM) in the series with S. pneumoniae (setting [8]).
With `Cc1onc(-c2ccccc2)c1C(=O)N[C@@H]1C(=O)N2[C@@H]1SC(C)(C)[C@@H]2C(=O)O` [Oxacillin], the results for the MIC50 in the series with MSSA (setting [5]) and in the series with MRSA were 0.5 µg/mL (≈ 1.25 µM) and above 32 µg/mL, respectively. In addition, the MIC90 in the series on MSSA (26 clinical isolates) was 1 µg/mL (≈ 2.49 µM); in the series with MRSA it was above 32 µg/mL.
As for `CO/N=C(\C(=O)N[C@@H]1C(=O)N2C(C(=O)O)=C(CSc3nc(=O)c(=O)[nH]n3C)CS[C@H]12)c1csc(N)n1` [ceftriaxone], in series [4], the protein-bound is recorded as above 90%.
Consider `O=C(O)c1cn(C2CC2)c2cc(N3CCNCC3)c(F)cc2c1=O` [ciprofloxacin], for which the time-kill activity result with S. pneumoniae ATCC49619, with S. aureus Giorgio, in the series with MRSA CCARM 3167 and with VRE 3 was “bactericidal (considered bactericidal if the original inoculum was reduced by 3 log CFU/mL (99.9%) at each concentration)” in each case.
Regarding teicoplanin, the protein-bound in series [4] is listed as above 90%.

What is called MIC50 is an inhibitory concentration at the 50% level, which refers to growth in some studies and to a panel of isolates in others. As a reminder, the MIC90 is an inhibitory concentration at the 90% level, which refers to growth in some studies and to a panel of isolates in others.
